From article PMC10937556, “Phenolic phytochemistry, in vitro, in silico, in vivo, and mechanistic anti-inflammatory and antioxidant evaluations of Habenaria digitata” (Frontiers in Pharmacology, 2024)
Each block holds one compound with its values, some of them ahead of it.

Tests used:
[1] = ABTS free radical scavenging assay
Method: The ABTS anti-radicals’ analysis was carried out according to [Shah et al. (2015)]. The ABTS solution was prepared by dissolving ABTS salt (192 mg) in distilled H2O, transferred to a flask (50 mL), and volume was adjusted. Thereafter, 1 mL of the preceding solution was added to 17 µL of K₂S₂O₈ (140 mM) and placed in the dark for 24 h s. The experiment’s ultimate ABTS dilution was achieved by mixing 1 mL of the reaction mixture with 50 mL of methanol. The ABTS solution (190 µL) was mixed with the sample solution (10 µL) and added to 96-well plates, which were then incubated at room temperature in dark for 2 h. Following incubation, the measurement of ABTS color intensity was conducted using a microplate reader at 734 nm. Positive control solutions were prepared at values of 1,000–62.5 µM. The percentage of ABTS scavenging was determined by using the following equation: % ABTS scavenging=Control−Sample/control×100.

[2] = DPPH free radical scavenging assay
Method: The DPPH (anti-radicals) investigation was carried out according to our earlier reported protocols. Initially, a methanolic DPPH solution was prepared with a concentration of 0.1%. Subsequently, 100 µL of this solution was mixed with an equal volume of the test samples (100 µL) in 96-well plates, following a 30-min incubation period at 25°C ± 3 °C in the dark. Solutions with concentrations ranging from […] were prepared. Five concentrations of 1,000, 500, 250, 125, and 62.5 µM of the Trolox methanolic solution ([…]) were formed. A color reduction in DPPH was observed after incubation; a microplate reader was used, and absorbance was measured at 540 nm ([Mahnashi et al., 2022a]; [Huneif et al., 2022]). The percentage of scavenging was determined by the formula: Scavenging effect %=control absorbance−sample absorbance/control absorbance×100.

COX-1 = COX-1 (Ovis aries, UniProt P05979); assay: Cyclooxygenase COX-1 inhibition assay; format: biochemical; settings: for inhibition at 62.5 µg/mL: 62.50 μg/mL; for inhibition at 62.5 µg/mL / inhibition at 125 µg/mL / inhibition at 500 µg/mL: read-out: % COX-1 inhibition; for inhibition at 1000 µg/mL: 1,000 µg/mL
[3] = tested on: carrageenan-induced paw edema; assay: Carrageenan-induced paw edema; format: in vivo, mice
Method: Mice of both sexes (25–30 g) were used for in vivo anti-inflammatory activity of test samples on the carrageenan-induced inflammation model ([Munir et al., 2020]). Mice were distributed into five groups, with eight animals in each group, divided at random. Group-I served as the negative control and received DMSO at a dose of 10 mL/kg body weight. Group-II served as a positive control, which received aspirin at a dose of 100 mg/kg body weight. […] Each mouse received 1 percent (w/v) saline solution (0.05 mL) of carrageenan in the sub-planter region after a 30-min interval. The paw edema volume was determined using a plethysmometer (LE 7500-plan lab S.L) at 1–5 h intervals after carrageenan was given. […] The percentages of inhibition of inflammation were calculated using the formula given below: % inhibition=EC−ET/EC×100, where “EC” is the average edema of control and “ET” is the edema of the tested group.

SOD = assay: In vivo antioxidant: SOD activity in brain, heart, liver; design: species or system mice; settings: for SOD activity: D-galactose aging mice
GSH-Px = assay: In vivo antioxidant: GSH-Px activity in brain, heart, liver; settings: D-galactose aging mice
Method: (§1) Twenty male albino mice were distributed into four groups, each with five mice. The control group (group 1) received 0.4 mL of distilled water. The compound was given in doses of 2.5, 5, and 10 mg/kg to groups 2, 3, and 4, respectively. Throughout the trial, the mice were given a daily dose for 3 weeks and were evaluated for alterations, other symptoms of toxicity, and death on a daily basis. Blood obtained by a direct heart puncture was utilized to assess the compound’s in vivo antioxidant activity 24 hours following the last dose ([Mota et al., 2023]).
The brain, liver, and heart homogenates were prepared in the cold saline via a homogenizer, and the unsolvable extract was discarded by centrifugation at 10,000 rpm for 15 min at temperature 4°C. After that, the supernatant was extracted immediately for GSH-Px assay ([Li et al., 2021]).

MDA = assay: In vivo antioxidant: MDA level; design: species or system mice; settings: compound 1 (20 mg)
CAT = assay: In vivo antioxidant: CAT activity; design: species or system mice; settings: high tested dose
Method: as §1, with “Blood obtained by a direct heart puncture was utilized to assess the compound’s in vivo antioxidant activity 24 hours following the last dose ([Mota et al., 2023]).” left out
[…] […] The reaction was started by adding 0.1 mL of fresh 30 mM H2O2, and the decomposition rate of H2O2 was measured on a spectrophotometer at 240 nm for 5 min. Catalase activity was determined using a molar extinction coefficient of 0.041 mM^−1 cm^−1.

[4] = tested on: histamine-induced paw edema; assay: Histamine-induced paw edema; settings: 20 mg/kg, 2nd hour
Method: (§2) Employing prostaglandin E2, bradykinin, leukotriene, and histamine induced paw edema assays; the potential anti-inflammatory mechanism of the isolated compound was investigated. […] Sub-planter injections of prostaglandin E2 (0.01 mg/mL) or 10 mg/mL leukotriene or bradykinin (20 mg/mL) or 0.1 mL histamine (1 mg/mL) produced paw edema after 1 h. Each mouse’s paw volume was assessed immediately before and after sub-planter injection of various irritants (inflammatory agents) at 1–5 h.

[5] = tested on: leukotriene-induced paw edema; assay: Leukotriene-induced paw edema; settings: 20 mg/kg
Method: as §2

[6] = tested on: prostaglandin E2-induced paw edema; assay: Prostaglandin E2-induced paw edema; settings: 20 mg/kg, 4th hour (maximal)
Method: as §2

Chain of COX-1 (P05979 25-600): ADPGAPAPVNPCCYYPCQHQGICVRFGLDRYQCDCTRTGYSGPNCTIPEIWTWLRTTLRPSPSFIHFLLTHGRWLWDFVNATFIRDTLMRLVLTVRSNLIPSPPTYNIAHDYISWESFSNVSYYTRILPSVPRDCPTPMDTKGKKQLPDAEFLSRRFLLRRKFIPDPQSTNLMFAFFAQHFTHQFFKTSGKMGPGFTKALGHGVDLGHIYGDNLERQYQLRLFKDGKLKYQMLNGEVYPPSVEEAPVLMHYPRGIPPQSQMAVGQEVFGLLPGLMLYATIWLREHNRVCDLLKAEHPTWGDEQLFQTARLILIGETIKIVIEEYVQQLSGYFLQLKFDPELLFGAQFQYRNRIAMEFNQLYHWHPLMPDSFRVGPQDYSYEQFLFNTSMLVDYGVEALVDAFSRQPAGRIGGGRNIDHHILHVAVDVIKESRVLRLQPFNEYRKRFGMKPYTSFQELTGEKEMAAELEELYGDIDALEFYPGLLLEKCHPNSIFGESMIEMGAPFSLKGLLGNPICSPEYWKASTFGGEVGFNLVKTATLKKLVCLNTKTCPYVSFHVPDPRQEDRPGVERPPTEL

SMILES: Cc1cnc(O)nc1O [Compound 1, 5-methylpyrimidine-24,4-diol]
ABTS IC50 [1]: 0.98 µg/mL | ABTS % inhibition ([1]; 62.5 µg/mL): 75.90 ± 0.48 % | ABTS % inhibition ([1]; 125 µg/mL): 79.03 ± 0.48 % | ABTS % inhibition ([1]; 250 µg/mL): 84.90 ± 0.96 % | ABTS % inhibition ([1]; 500 µg/mL): 87.65 ± 1.34 % | ABTS % inhibition ([1]; 1,000 µg/mL): 91.58 ± 1.12 % | DPPH IC50 [2]: 0.90 µg/mL | DPPH % inhibition ([2]; 62.5 µg/mL): 75.00 ± 1.15 % | DPPH % inhibition ([2]; 125 µg/mL): 78.67 ± 0.89 % | DPPH % inhibition ([2]; 250 µg/mL): 83.00 ± 0.58 % | DPPH % inhibition ([2]; 500 µg/mL): 87.03 ± 0.23 % | DPPH % inhibition ([2]; 1,000 µg/mL): 93.33 ± 0.49 % | inhibition at 62.5 µg/mL (COX-1): 45.8 ± 0.9% | inhibition at 125 µg/mL (COX-1): 55.4 ± 0.2% | inhibition at 250 µg/mL (COX-1): 60.6 ± 0.63% | inhibition at 500 µg/mL (COX-1): 66.5 ± 0.9% | inhibition at 1000 µg/mL (COX-1): 73.1 ± 1.04% | Percentage inhibition of paw edema ([3]; dose 5 mg/kg, 1 h): 46.72 ± 2.63 ns % | Percentage inhibition of paw edema ([3]; dose 5 mg/kg, 2 h): 50.46 ± 2.52 % | Percentage inhibition of paw edema ([3]; dose 5 mg/kg, 3 h): 53.58 ± 1.33 % | Percentage inhibition of paw edema ([3]; dose 5 mg/kg, 4 h): 52.37 ± 1.46 % | Percentage inhibition of paw edema ([3]; dose 5 mg/kg, 5 h): 55.23 ± 1.61 % | Percentage inhibition of paw edema ([3]; dose 10 mg/kg, 1 h): 51.37 ± 2.23 % | Percentage inhibition of paw edema ([3]; dose 10 mg/kg, 2 h): 53.56 ± 3.57 % | Percentage inhibition of paw edema ([3]; dose 10 mg/kg, 3 h): 56.56 ± 1.57 % | Percentage inhibition of paw edema ([3]; dose 10 mg/kg, 4 h): 55.76 ± 2.62 % | Percentage inhibition of paw edema ([3]; dose 10 mg/kg, 5 h): 61.68 ± 2.77 % | Percentage inhibition of paw edema ([3]; dose 20 mg/kg, 1 h): 54.27 ± 3.06 % | Percentage inhibition of paw edema ([3]; dose 20 mg/kg, 2 h): 56.38 ± 1.67 % | Percentage inhibition of paw edema ([3]; dose 20 mg/kg, 3 h): 59.74 ± 2.67 % | Percentage inhibition of paw edema ([3]; dose 20 mg/kg, 4 h): 58.02 ± 1.95 % | SOD activity (SOD; brain, high-dosage group): 95 U/mL | SOD activity (SOD; heart, compound 1 (10 mg) group): 140.0 U/mg proteins | SOD activity (SOD; heart, high-dosage group): 180.0 U/mg proteins | SOD activity (SOD; liver, high-dosage group): 890.0 U/mg protein | SOD activity compared to the model group (SOD; p < 0.05, D-galactose aging mice): higher | GSH-Px activity in brain, heart and liver (GSH-Px): enhances the activity of GSH-Px | MDA concentration (MDA; brain): 1.15 nmol/mL | MDA concentration (MDA; heart): 0.8 nmol/mg protein | MDA concentration (MDA; liver): 0.4 nmol/mg protein | CAT activity (CAT; brain): 97 U/mL | CAT activity (CAT; heart): 143.02 U/mg protein | CAT activity (CAT; liver): 139.0 U/mg protein | Percentage inhibition of histamine-induced paw edema [4]: 28.12 ± 0.62% | Percentage inhibition of leukotriene-induced paw edema ([5]; 1 h): 53.00 ± 1.10% | Percentage inhibition of leukotriene-induced paw edema ([5]; 2 h): 59.50 ± 0.92% | Percentage inhibition of leukotriene-induced paw edema ([5]; 3 h): 62.0 ± 0.70% | Percentage inhibition of leukotriene-induced paw edema ([5]; 4 h): 54.84 ± 0.92% | Percentage inhibition of leukotriene-induced paw edema ([5]; 5 h): 41.43 ± 1.10% | Percentage inhibition of prostaglandin E2-induced paw edema [6]: 82.0 ± 0.34%

ABTS IC50 [1]: 03 µg/mL | DPPH IC50 [2]: 04 µg/mL | inhibition at 62.5 µg/mL (COX-1): 40.8 ± 1.06% | inhibition at 125 µg/mL (COX-1): 46.4 ± 0.62% | inhibition at 250 µg/mL (COX-1): 54.6 ± 0.58% | inhibition at 500 µg/mL (COX-1): 65.29 ± 0.41% | inhibition at 1000 µg/mL (COX-1): 71.37 ± 0.56%
SMILES: CC1=C(O)C(=O)C(O)CO1 (stereo not shown) [Compound 2, 3,5-dihydroxy-6-methyl-2,3-dihydro-4H-pyran-4-one]
ABTS % inhibition ([1]; 62.5 µg/mL): 68.52 ± 0.38 % | ABTS % inhibition ([1]; 125 µg/mL): 72.64 ± 0.16 % | ABTS % inhibition ([1]; 250 µg/mL): 77.61 ± 1.70 % | ABTS % inhibition ([1]; 500 µg/mL): 81.94 ± 0.45 % | ABTS % inhibition ([1]; 1,000 µg/mL): 86.47 ± 0.22 % | DPPH % inhibition ([2]; 62.5 µg/mL): 72.74 ± 0.61 % | DPPH % inhibition ([2]; 125 µg/mL): 76.54 ± 0.50 % | DPPH % inhibition ([2]; 250 µg/mL): 81.48 ± 0.64 % | DPPH % inhibition ([2]; 500 µg/mL): 86.86 ± 0.60 % | DPPH % inhibition ([2]; 1,000 µg/mL): 91.62 ± 0.74 %
